The text below walks through data of US10087449B2, “Pharmaceutical composition for treating chronic kidney disease” (SHIONOGI & CO., LTD., priority 2014, dated 2018).

One data set has as its system NRK49F cells. Put plainly: TGFβ stimulation of NRK49F rat kidney fibroblasts, gene expression by quantitative PCR. It counts as cell-based. As to the method: Effect of stimulation by TGFβ, known as a promoting factor of fibrosis (Refer to Nephrol Dial Transplant., 1998, vol. 13, p. 573-579), on gene expression of NNMT, COL1A1, COL3A1 and COL4A1 was examined using NRK49F cells that are rat kidney fibroblasts. NRK49F cells were seeded into 12 well plates at 4×10^4 cells/well/mL and culture medium was changed to serum-free medium after 72 hr. Recombinant human TGFβ1 (R & D Co., Ltd., 5 ng/mL) was added after 24 hr and the cells were cultured for 6, 24 and 48 hr. After culture, total RNA was extracted from cells and the gene expression levels of NNMT, COL1A1, COL3A1 and COL4A1 were analyzed by quantitative PCR.
(§1) The siRNA of NNMT was introduced into NRK49F cells, rat kidney fibroblast cell line, the effect of which on enhanced gene expression of COL1A1, COL3A1 and COL4A1 by TGFβ stimulation was examined (FIG. 4). After NRK49F cells were seeded into 12 well plates at 4×10^4 cells/well/mL and culture for 72 hr, culture medium was changed to antibiotic-free medium and siRNA sequence (F; […] (SEQ ID NO: 2), R; […] (SEQ ID NO: 3)) for rat NNMT purchased was introduced into cells for 24 hr by lipofection method using RNAiMAX (Invitrogen Corp.) which is an introduction reagent of siRNA. Next, culture medium was changed to serum-free medium and after 24 hr, human recombinant TGFβ (R & D Co., Ltd., 5 ng/mL) was added and cultured for 48 hr. After culture, total RNA was extracted from cells and the gene expression levels of NNMT, COL1A1, COL3A1 and COL4A1 were analyzed by quantitative PCR.

In a further data set the test system is rat NNMT. Kind of data set: siRNA knock-down of NNMT gene expression in TGFβ-stimulated NRK49F cells (quantitative PCR). Particulars: TGFβ 5 ng/mL, 48 hr. It counts as cell-based. The method, then: as §1
Data set [1] relates to gene expression of COL1A1, COL3A1 and COL4A1 in NRK49F cells. Kind of data set: Effect of NNMT siRNA on collagen gene expression enhanced by TGFβ in NRK49F cells (quantitative PCR). It is filed as cell-based, rat. The conditions noted are these: TGFβ 5 ng/mL, 48 hr. The method, then: as §1

With “TGFβ1: Recombinant human TGFβ1 (R & D Co., Ltd.), promoting factor of fibrosis used as stimulus”, in the data set on NRK49F cells (TGFβ 5 ng/mL, 48 hr), the “increase in gene expression of COL1A1” value stood at 7.1 fold, the “increase in gene expression of COL3A1” value worked out at 6.5 fold, the “increase in gene expression of COL4A1” value came to 3.1 fold and the “increase in gene expression of NNMT” value is “about 3.6 fold”. In the data set on NRK49F cells (TGFβ1 5 ng/mL, 6, 24 and 48 hr), the “gene expression level of COL1A1 over time” value is given as “time-dependent increases”; the “gene expression level of COL3A1 over time” value was “time-dependent increases”; the “gene expression level of NNMT over time” value is reported as “time-dependent increases”; the “gene expression of COL4A1 over time” value is “reached the maximum level in 6 hr and left the plateau to 24 hr”.

For the substance “siRNA of NNMT: siRNA for rat NNMT, purchased; F CCACAUCCAAUAAUGAAGGACUCUU (SEQ ID NO: 2), R AAGAGUCCUUCAUUAUUGGAUGUGG (SEQ ID NO: 3) (listed as RNA, chemistry not given here)”, the “knock-down of gene expression of NNMT” value in the data set on rat NNMT (siRNA 0.01 nM) is 23%; in the data set on rat NNMT (siRNA 0.1 nM), 45%; in the data set with rat NNMT (siRNA 1 nM), 60%. Moreover, the “decrease in gene expression of COL1A1” value is given as 20% in data set [1] (siRNA 0.01 nM), 36% in data set [1] (siRNA 0.1 nM) and 78% in data set [1] (siRNA 1 nM). Moreover, the “decrease in gene expression of COL3A1” value in data set [1] (siRNA 0.01 nM) stood at 20%; in data set [1] (siRNA 0.1 nM), 31%; in data set [1] (siRNA 1 nM), 62%. Also, the “decrease in gene expression of COL4A1” value in data set [1] (siRNA 0.01 nM) stood at 33%; in data set [1] (siRNA 0.1 nM), 15%; in data set [1] (siRNA 1 nM), 57%.
